These results are taken from US8614327B2 (Vertex Pharmaceuticals Incorporated, priority 2004, dated 2013).

The test has as its target T1, ΔF508-CFTR (Homo sapiens, UniProt P13569, DEL508-508).
T1 construct: expressed in transfected cells
The test can be described thus: Membrane potential optical (FRET/VIPR) assay, identification of potentiator compounds. In kind it is cell-based. As to conditions: Table 3, assay not given; for % Activity: relative efficacy. Summed up:
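Double-addition potentiator screen: compound delivered in gluconate-substituted Cl^--free medium, membrane potential followed via CC2-DMPE/DiSBAC2(3) FRET on VIPR. Cells were ΔF508-CFTR-expressing NIH3T3 mouse fibroblasts, held 2 h at 37° C. then 24 h at 27° C. before assay.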

T1 sequence (P13569 with tags, fused parts or gaps DEL508-508): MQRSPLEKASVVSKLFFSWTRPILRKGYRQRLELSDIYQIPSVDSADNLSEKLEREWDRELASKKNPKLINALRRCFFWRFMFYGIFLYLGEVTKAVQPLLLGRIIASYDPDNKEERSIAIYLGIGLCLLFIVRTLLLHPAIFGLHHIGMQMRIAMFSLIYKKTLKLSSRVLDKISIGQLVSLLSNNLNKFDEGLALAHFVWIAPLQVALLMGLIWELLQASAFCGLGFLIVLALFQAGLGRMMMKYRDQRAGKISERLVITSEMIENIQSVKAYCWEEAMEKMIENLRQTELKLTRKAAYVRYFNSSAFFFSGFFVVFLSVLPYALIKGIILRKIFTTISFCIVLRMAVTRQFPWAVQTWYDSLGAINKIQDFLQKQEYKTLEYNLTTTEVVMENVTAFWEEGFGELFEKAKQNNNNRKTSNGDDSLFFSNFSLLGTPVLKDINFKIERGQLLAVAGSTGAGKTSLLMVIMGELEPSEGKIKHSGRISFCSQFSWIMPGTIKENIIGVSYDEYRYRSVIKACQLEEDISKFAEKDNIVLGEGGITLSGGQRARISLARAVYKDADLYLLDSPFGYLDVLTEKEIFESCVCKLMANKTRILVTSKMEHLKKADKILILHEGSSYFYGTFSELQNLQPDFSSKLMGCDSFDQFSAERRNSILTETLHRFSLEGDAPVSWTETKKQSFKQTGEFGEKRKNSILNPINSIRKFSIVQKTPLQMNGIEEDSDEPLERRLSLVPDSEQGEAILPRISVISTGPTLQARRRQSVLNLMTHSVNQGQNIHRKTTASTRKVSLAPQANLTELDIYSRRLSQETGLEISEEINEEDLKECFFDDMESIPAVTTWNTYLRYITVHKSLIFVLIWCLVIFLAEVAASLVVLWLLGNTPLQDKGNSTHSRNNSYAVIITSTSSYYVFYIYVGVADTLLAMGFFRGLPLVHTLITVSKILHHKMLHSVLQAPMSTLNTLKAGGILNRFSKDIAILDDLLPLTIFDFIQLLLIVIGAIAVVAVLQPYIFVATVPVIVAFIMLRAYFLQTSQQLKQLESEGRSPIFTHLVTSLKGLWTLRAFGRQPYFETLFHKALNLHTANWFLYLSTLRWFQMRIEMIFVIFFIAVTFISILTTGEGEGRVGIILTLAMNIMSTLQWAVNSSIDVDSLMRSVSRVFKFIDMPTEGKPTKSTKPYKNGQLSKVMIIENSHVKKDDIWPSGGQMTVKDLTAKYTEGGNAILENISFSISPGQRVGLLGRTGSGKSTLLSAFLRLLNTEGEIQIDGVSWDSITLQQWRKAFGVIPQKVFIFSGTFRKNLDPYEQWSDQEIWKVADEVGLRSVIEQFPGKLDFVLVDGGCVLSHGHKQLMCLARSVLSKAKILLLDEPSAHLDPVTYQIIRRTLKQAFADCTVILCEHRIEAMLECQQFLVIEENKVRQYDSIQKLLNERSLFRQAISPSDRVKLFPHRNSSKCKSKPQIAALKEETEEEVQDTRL

With `N#Cc1ccc(-c2ccccc2NC(=O)c2c[nH]c3ccccc3c2=O)s1` [Compound 93, N-[2-(5-cyano-2-thienyl)phenyl]-4-oxo-1H-quinoline-3-carboxamide], the EC50 is < 10 µM and the “% Activity” value is on record as “++ (between 25% to 100%)”.

In the case of `Cc1ccc(N)cc1NC(=O)c1c[nH]c2ccccc2c1=O` [Compound 94, N-(5-Amino-2-methyl-phenyl)-4-oxo-1H-quinoline-3-carboxamide], the EC50 was < 10 µM and the “% Activity” value is reported as “++ (between 25% to 100%)”.

For `N#Cc1ccccc1NC(=O)c1c[nH]c2ccccc2c1=O` [Compound 95, N-(2-cyanophenyl)-4-oxo-1H-quinoline-3-carboxamide], the EC50 lay in the range of 10 to 25 µM and the “% Activity” value is given as “++ (between 25% to 100%)”.

As to `N#CCc1c[nH]c2cc(NC(=O)c3c[nH]c4ccccc4c3=O)ccc12` [Compound 96, N-[3-(cyanomethyl)-1H-indol-6-yl]-4-oxo-1H-quinoline-3-carboxamide], the half-maximal effective concentration (EC50) is < 10 µM and the “% Activity” value is on record as “++ (between 25% to 100%)”.

In the case of `COc1ncc(-c2ccccc2NC(=O)c2c[nH]c3ccccc3c2=O)c(OC)n1` [Compound 97, N-[2-(2,4-dimethoxypyrimidin-5-yl)phenyl]-4-oxo-1H-quinoline-3-carboxamide], the EC50 is < 10 µM and the “% Activity” value was “++ (between 25% to 100%)”.

Consider `CCCc1ccc(N(C)C)cc1NC(=O)c1c[nH]c2ccccc2c1=O` [Compound 98, N-(5-dimethylamino-2-propyl-phenyl)-4-oxo-1H-quinoline-3-carboxamide], for which the EC50 is < 10 µM and the “% Activity” value was “++ (between 25% to 100%)”.

Consider `CCCCCc1ccc(NC(=O)c2c[nH]c3ccccc3c2=O)cc1` [Compound 99, 4-oxo-N-(4-pentylphenyl)-1H-quinoline-3-carboxamide], for which the 50% effective concentration (EC50) is < 10 µM and the “% Activity” value was “++ (between 25% to 100%)”.

As to `O=C(Nc1cccc2[nH]ccc12)c1c[nH]c2ccccc2c1=O` [Compound 100, N-(1H-indol-4-yl)-4-oxo-1H-quinoline-3-carboxamide], the EC50 was in the range of 25 to 60 µM and the “% Activity” value is “+ (<25%)”.

With `CC(C)c1ccc(N)cc1NC(=O)c1c[nH]c2ccccc2c1=O` [Compound 101, N-(5-amino-2-isopropyl-phenyl)-4-oxo-1H-quinoline-3-carboxamide], the EC50 was < 10 µM and the “% Activity” value was “++ (between 25% to 100%)”.

Regarding `O=C(Nc1ccccc1-c1nc(-c2ccc(Cl)cc2)no1)c1c[nH]c2ccccc2c1=O` [Compound 102, N-[2-[3-(4-chlorophenyl)-1,2,4-oxadiazol-5-yl]phenyl]-4-oxo-1H-quinoline-3-carboxamide], the EC50 lay within 10 to 25 µM and the “% Activity” value is given as “++ (between 25% to 100%)”.

Consider `CC(C)(C)c1cc(C(C)(C)C)c(NC(=O)c2c[nH]c3ccc(F)cc3c2=O)cc1O` [Compound 103, 6-fluoro-N-(5-hydroxy-2,4-ditert-butyl-phenyl)-4-oxo-1H-quinoline-3-carboxamide], for which the EC50 is < 10 µM and the “% Activity” value was “+++ (>100%)”.

Turning to `Cc1cc2ccc(NC(=O)c3c[nH]c4ccccc4c3=O)cc2[nH]1` [Compound 104, N-(2-methyl-1H-indol-6-yl)-4-oxo-1H-quinoline-3-carboxamide], the EC50 is < 10 µM and the “% Activity” value is reported as “++ (between 25% to 100%)”.

Consider `O=C(Nc1ccc2c(c1)NCCO2)c1c[nH]c2ccccc2c1=O` [Compound 105, 1,4-dihydro-N-(3,4-dihydro-2H-benzo[b][1,4]oxazin-6-yl)-4-oxoquinoline-3-carboxamide], for which the concentration giving a half-maximal response (EC50) lay within 10 to 25 µM and the “% Activity” value is “++ (between 25% to 100%)”.

On to `COc1cc(C#N)c(NC(=O)c2c[nH]c3ccccc3c2=O)cc1OC` [Compound 106, N-(2-cyano-4,5-dimethoxy-phenyl)-4-oxo-1H-quinoline-3-carboxamide], for which the 50% effective concentration (EC50) fell in the range of 25 to 60 µM and the “% Activity” value is reported as “+ (<25%)”.

`CC(C)(C)OC(=O)N1CCc2ccc(NC(=O)c3c[nH]c4ccccc4c3=O)cc2C1` [Compound 107, 7-[(4-oxo-1H-quinolin-3-yl)carbonylamino]-1,2,3,4-tetrahydroisoquinoline-2-carboxylic acid tert-butyl ester]: the EC50 was in the range of 10 to 25 µM and the “% Activity” value was “++ (between 25% to 100%)”.

On to `CC(C)(C)OC(=O)N1CCC(C)(C)c2ccc(NC(=O)c3c[nH]c4ccccc4c3=O)cc21` [Compound 108, 4,4-dimethyl-7-[(4-oxo-1H-quinolin-3-yl)carbonylamino]-1,2,3,4-tetrahydroquinoline-1-carboxylic acid tert-butyl ester], for which the EC50 is < 10 µM and the “% Activity” value was “++ (between 25% to 100%)”.

With `CC(=O)N1CCCC(C)(C)c2ccc(NC(=O)c3c[nH]c4ccccc4c3=O)cc21` [Compound 109, N-(1-acetyl-2,3,4,5-tetrahydro-5,5-dimethyl-1H-benzo[b]azepin-8-yl)-1,4-dihydro-4-oxoquinoline-3-carboxamide], the “% Activity” value is recorded as “++ (between 25% to 100%)”.

For `N#CCc1ccc(NC(=O)c2c[nH]c3ccccc3c2=O)cc1` [Compound 110, N-[4-(cyanomethyl)phenyl]-4-oxo-1H-quinoline-3-carboxamide], the EC50 is 25 to 60 µM and the “% Activity” value is “+ (<25%)”.

Turning to `O=C(Nc1ccccc1C(F)(F)F)c1c[nH]c2ccccc2c1=O` [Compound 111, 4-oxo-N-[2-(trifluoromethyl)phenyl]-1H-quinoline-3-carboxamide], the half-maximal effective concentration (EC50) was < 10 µM and the “% Activity” value is “++ (between 25% to 100%)”.

`CCOc1ccc2ncc(C(=O)Nc3ccc4cc[nH]c4c3)c(O)c2c1` [Compound 112, 6-ethoxy-4-hydroxy-N-(1H-indol-6-yl)quinoline-3-carboxamide]: the EC50 was < 10 µM and the “% Activity” value was “++ (between 25% to 100%)”.

In the case of `Cc1c[nH]c2cc(NC(=O)c3c[nH]c4ccccc4c3=O)ccc12` [Compound 113, N-(3-methyl-1H-indol-6-yl)-4-oxo-1H-quinoline-3-carboxamide], the EC50 is < 10 µM and the “% Activity” value is “++ (between 25% to 100%)”.

Take `CCOc1ccccc1-c1ccc(NC(=O)OC(C)(C)C)cc1NC(=O)c1c[nH]c2ccccc2c1=O` [Compound 114, [4-(2-ethoxyphenyl)-3-[(4-oxo-1H-quinolin-3-yl)carbonylamino]phenyl]aminoformic acid tert-butyl ester]: the EC50 is < 10 µM and the “% Activity” value was “++ (between 25% to 100%)”.

As to `O=C(Nc1ccccc1-c1ccco1)c1c[nH]c2ccccc2c1=O` [Compound 115, N-[2-(2-furyl)phenyl]-4-oxo-1H-quinoline-3-carboxamide], the concentration giving a half-maximal response (EC50) is < 10 µM and the “% Activity” value is “++ (between 25% to 100%)”.

On to `O=C(Nc1ccc2cc[nH]c2c1)c1c[nH]c2cccc(O)c2c1=O` [Compound 116, 5-hydroxy-N-(1H-indol-6-yl)-4-oxo-1H-quinoline-3-carboxamide], for which the EC50 was < 10 µM and the “% Activity” value was “++ (between 25% to 100%)”.

For the compound `CC(C)c1ccc(NC(=O)c2c[nH]c3ccccc3c2=O)cc1N(C)C` [Compound 117, N-(3-dimethylamino-4-isopropyl-phenyl)-4-oxo-1H-quinoline-3-carboxamide], the EC50 was < 10 µM and the “% Activity” value is on record as “++ (between 25% to 100%)”.

A word on the EC50: it is the concentration needed to bring the measured effect to its halfway point.
